# In patent publication US20200360471A1, “METHODS OF TREATING AND PREVENTING VIRAL INFECTIONS” (priority 2017, published 2020):
# Peptide text beside a SMILES is read from it.
# Legend:
# TLR3/RIG-1/Mda5 = assay: polyI:C-induced cytokine responses in PBMC cultures with peptide pre-treatment; format: cell-based, human; details: 5 or 25 μg/mL peptide, 30 min pre-treatment, 24 hrs
# Procedure: (§1) Primary cell cultures were prepared in RPMI including 5% autologous plasma. Isolated PBMC cells were cultured in 96-well plates at a density of 0.5×10^6cells/well at 37° C., under humidified 5% CO2.
# (§2) IL-1β, TNFα, IL-6 and IL-8 were measured simultaneously with a fixed electrochemoluminescence platform based on the sandwich ELISA principle of capture and detection antibodies, produced by MESO SCALE DISCOVERY (MSD, MESO SCALE QUICKPLEX SQ120). The applied assay was the V-PLEX PLUS pro-inflammatory cytokine panel II, including IL-1β, TNFα, IL-6 and IL-8. This assay includes manufacturer-provided control samples with indicated nominal values for comparison. These lyophilized controls, i.e. freeze-dried controls for IL-1β, TNFα, IL-6, IL-8, were prepared freshly at the time of use. QC samples were prepared from the calibrator at 3 different concentrations along the standard curve as multiple aliquots from a single batch and maintained at −20° C. Low, medium and high concentration controls were included in every multiplex assay run to control intra- and inter-assay variation. V-PLEX panels are specific for the detection of human chemokines and cytokines, and combinations have been validated by the manufacturer, to ensure no cross-reactivity.
# (§3) IFNα was quantified by a sandwich ELISA based on specific capture and detection antibodies for various matrices (MABTECH), according to the manufacturer's instructions. QC samples were prepared from the calibrator at 3 different concentrations along the standard curve as multiple aliquots from a single batch and maintained at −20° C.
# as §3, with “IFNβ” for “IFNα”, “(PBL ASSAY SCIENCE),” for “(MABTECH),”, “C. freezer.” for “C.”
# (§4) Briefly, PBMC primary cultures were prepared from 4 healthy donors (2 males, 2 females) as described above. […] The cultures were prepared in duplicate and the readouts for pan-IFNα and IFNβ (ELISA) were measured once. Five-point concentration-response curves were constructed for the various treatment conditions in the PBMC cultures, freshly isolated from 4 subjects.
# TLR7 = assay: imiquimod-induced cytokine responses in PBMC cultures with peptide pre-treatment; format: cell-based, human
# Procedure: as §1, §2, §3
# as §3, with “IFNβ” for “IFNα”, “(PBL ASSAY SCIENCE),” for “(MABTECH),”, “C. freezer.” for “C.”
# as §4
# HPV6 and HPV11 = assay: HPV viral load (qPCR) in swabs of target wart; format: in vivo
# Procedure: The treatment period was from day 0 till day 84. During the treatment period subjects visited the clinical unit on days 0, 14, 28, 56 and 84. A fixed dose of omiganan or placebo was applied once daily. Two follow up visits were scheduled on days 126 and 168. During study execution, vital signs were measured on days 0, 14, 28, 56 and 84. Pharmacodynamic assessments were performed on day 0 (pre-dose), 14, 28, 56 and 84, respectively. Punch biopsies were performed at the screening and on days 56 and 168. Subjects were dosed 84 consecutive days with approximately 24 hours between each treatment.
# HPV viral load in swabs. Swabs were taken from the target wart (or site where target wart was) at every study visit. A quantitative PCR (qPCR) of the swabs was performed for HPV6 and HPV11 to determine the viral load of the specific HPV. Swab samples were collected at day 0, 14, 28, 56, 84 (EOT), […] and 168 (EOS). In FIGS. 22A and 22B, the qPCR was expressed as copies/μL and natural log transformed. In FIGS. 23A and 23B, the qPCR was expressed as copies/μL, natural log transformed and also corrected for the amount of DNA in the sample.
# TC-1 tumor = assay: Tumor outgrowth in TC-1 mice in presence or absence of anti-neutrophil antibody aLy6G; format: in vivo
# Procedure: 10, 12, and 14. Tumor growth was measured at days 11, 13, 15, 17, 20, and 22.
# [1] = tested on: imiquimod-induced inflammatory responses of the skin; assay: Topical omiganan and imiquimod in skin of healthy subjects; format: in vivo, human
# Procedure: Sixteen (16) healthy subjects participated in the study. Pharmacodynamic effects were assessed on Day 1, 2, 3, 4, 5 and 14 (EOS) by clinical assessment of the lesion on-site with visual erythema grading by a blinded investigator, erythema by colorimetry, erythema by multispectral imaging, erythema by 2D photography analysis, perfusion by laser speckle contrast imaging (LSCI), skin surface biomarkers by transdermal analysis patch (TAP) and local biopsies biomarkers. […] 3 mm skin punch biopsies were collected at day 5 for qPCR mRNA expression, histology and immunohistochemistry. Enhanced inflammation and immune system activation was observed when OMN was applied to 48 hours IMQ primed skin. This was most pronounced for markers IFNγ, IL-10, IL-6, MX1 and MXA (FIGS. 39-43, respectively) indicating an increased anti-viral response. Further, this activity is correlated with cellular infiltrates of CD4+, CD8+ and CD14+ cells (FIGS. 44-47).
# [2] = 5 or 25 μg/mL peptide, 30 min pre-treatment, 24 hrs
# [3] = right-shift of imiquimod concentration response curves
# [4] = omiganan applied after imiquimod application
smiles,measurement,setting,value
"CC[C@H](C)[C@H](N)C(=O)N[C@@H](CC(C)C)C(=O)N[C@@H](CCCNC(=N)N)C(=O)N[C@@H](Cc1c[nH]c2ccccc12)C(=O)N1CCC[C@H]1C(=O)N[C@@H](Cc1c[nH]c2ccccc12)C(=O)N[C@@H](Cc1c[nH]c2ccccc12)C(=O)N1CCC[C@H]1C(=O)N[C@@H](Cc1c[nH]c2ccccc12)C(=O)N[C@@H](CCCNC(=N)N)C(=O)N[C@@H](CCCNC(=N)N)C(=O)N[C@@H](CCCCN)C(N)=O [omiganan, I L R W P W W P W R R K] (H-ILRWPWWPWRRK-NH2)",IL-6 responses to polyI:C (TLR3/RIG-1/Mda5),TLR3/RIG-1/Mda5,did not significantly affect
same,TNFα responses to polyI:C (TLR3/RIG-1/Mda5),TLR3/RIG-1/Mda5,did not significantly affect
same,polyI:C-driven IL-1β release,TLR3/RIG-1/Mda5,did not significantly affect
same,spontaneous and polyI:C-driven IL-8 release,TLR3/RIG-1/Mda5,strongly inhibited
same,interferon responses induced by polyI:C stimulation,TLR3/RIG-1/Mda5; PBMC of 4 donors,enhanced
same,IL-6 responses to imiquimod (TLR7),TLR7; [2],inhibited
same,TNFα responses to imiquimod (TLR7),TLR7; [2],inhibited
same,interferon responses in the presence of imiquimod,"TLR7; 5 or 25 μg/mL peptide, 30 min pre-treatment, 24 hrs, PBMC of 4 donors",induced strong interferon responses
same,IL-1(3 responses to imiquimod (TLR7)),TLR7; [3],inhibited
same,IL-8 responses to imiquimod (TLR7),TLR7; [3],inhibited
same,viral load of HPV6 in swabs,HPV6 and HPV11; during omiganan treatment,strong trend toward reduction
same,HPV6 and HPV11 viral load compared to placebo,"HPV6 and HPV11; swabs, qPCR, at EOT, p=0.0201",statistical significant decrease
same,tumor outgrowth compared to PBS-treated mice,"TC-1 tumor; intratumoral on days 9, 11, 14, 16, 18, without aLy6G",reduction in tumor outgrowth
same,reduction in tumor outgrowth,TC-1 tumor; omiganan treated group also treated with aLy6G,not observed
same,"relation of this activity to cellular infiltrates of CD4+, CD8+ and CD14+ cells","[1]; applied to 48 hours IMQ primed skin, biopsies day 5",correlated
same,"inflammation and immune system activation (most pronounced for IFNγ, IL-10, IL-6, MX1, MXA)","[1]; applied to 48 hours IMQ primed skin, biopsies day 5, qPCR",Enhanced
same,basal blood flow,[1]; [4],enhanced the activity of imiquimod
same,erythema,[1]; [4],enhanced the activity of imiquimod
